experiment: gradient 5% acetonitrile 3 min, to 50% in 2 min, to 85% in 15 min, held 3 min, 100 µL/min; settings: column: Zorbax Extend-C18 2.1 x 50 mm; eluents: water / acetonitrile, 0.1% formic acid
Method in brief: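 The system's dead and dwell volumes were 40 μL and 900 μL, with a Zorbax Extend-C18 column (2.1 × 50 mm, 1.8 μm) run at 100 μL/min in water and acetonitrile containing 0.1% formic acid each. Pure standards were analyzed in mixtures of ~100 molecules by HPLC–quadrupole time-of-flight mass spectrometry in positive and negative ionization mode. Retention time was assigned from computationally picked, manually inspected adduct peaks.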

SMILES | RP-LC retention time [s]
O=C(C1CCN(c2cc(N3CCOCC3)ncn2)CC1)N1CCN(c2ccccc2)CC1 | 640
O=C(Cc1ccccc1)N1CCN(c2nc3cccnc3o2)CC1 | 686
Cc1ccc(NC(=O)C2(Cc3ccccc3)CCCCC(=O)N2)cc1 (centres undefined) | 848
CN(C)[C@@H]1CN(C(=O)Cn2c(=O)oc3cc(Cl)ccc32)C[C@H]1CO | 596
CC1CCCCN1C(=O)Cn1c(CCO)nc2ccccc21 (centres undefined) | 583
CCCn1c(=O)c(C)nc2cc(-c3noc(/C=C/c4cccs4)n3)ccc21 | 792
COc1cccc(-c2noc(N3CCN(c4ccccn4)CC3)n2)c1OC | 645
Cc1ccc(S(=O)(=O)N2CCC3(CC2)c2nccn2CCN3C)cc1F | 654
CC1(C)Oc2ccc(C#N)cc2[C@@H](OC2=CC(=O)CC2)[C@@H]1O | 746
CC(CNC(=O)c1cn(C)nc1S(=O)(=O)N1CCSCC1)c1ccccc1 (centres undefined) | 1120
N#Cc1cc2c(OCC(O)CN3CCN(C(c4ccccc4)c4ccccc4)CC3)cccc2[nH]1 (centres undefined) | 819
CN(C1CCc2nn(Cc3ccccc3)c(=O)n2CC1)S(C)(=O)=O (centres undefined) | 666
COC(=O)c1c(C)[nH]c(C(=O)N2CCCC(C(=O)NC3CCCCCC3)C2)c1C (centres undefined) | 794
O=C(C1COc2ccccc2O1)N1CCc2cc(-c3ccno3)ccc21 (centres undefined) | 991
Cc1ccc(-c2nc(N)n(C(=O)C(C)(C)C)n2)cc1 | 1080
COc1ccc(CCNc2ncnc(N)c2[N+](=O)[O-])cc1OC | 660
Cc1cc(C)n(-c2ncnc3c2cnn3Cc2ccccc2Cl)n1 | 1330
O=C(c1cccnc1)N1CCC(Oc2cc(N3CCCCC3)ncn2)C1 (centres undefined) | 651
CCCn1nc(CNC(=O)c2ccoc2)c2ccccc21 | 789
O=C(Cc1cccs1)N1CCN(c2cnn3cnnc3c2)CC1 | 585
CCC(C(=O)N1CCN(c2ccc(-c3ccc4c(c3)OCO4)nn2)CC1)c1ccccc1 (centres undefined) | 723

SMILES | RP-LC retention time [s]
COc1cc(OC)cc(C(=O)N2CCC3(C2)C(=O)N(C)c2ccc(OC)cc23)c1 (centres undefined) | 798
Cc1nc(-c2ccncc2)nc2c1CCC(=O)N2CC1CCCCC1 | 918
Cc1ccc(CNC(=O)C2(C)CCCN(C(=O)Nc3ccc(Br)cc3)C2)cc1 (centres undefined) | 1040
C=CCSc1nc(N)c2c(C)c(C(=O)O)sc2n1 | 708
Cc1ccccc1Cn1c(N2CCC(C(=O)N3CCN(c4ccccn4)CC3)CC2)nc2ccccc21 | 587
COc1cc(C(O)CCBr)c(OC)cc1C (centres undefined) | 1020
CC(C)OCCCNC(=O)C1Cn2cccc2C(=O)N1 (centres undefined) | 602
O=C1COc2cc(S(=O)(=O)N3CCCC3C(=O)NC3CCCCC3)c(Cl)cc2N1 (centres undefined) | 779
CCN(CC)CCNC(=O)C1CCCN(c2ncc(-c3cccc(F)c3)cn2)C1 (centres undefined) | 688
O=C(NCCc1c[nH]c2ccccc12)C1CCCN(c2nn3c(=O)c4c(nc3s2)CCCC4)C1 (centres undefined) | 775
CCCS(=O)(=O)N1CCC2(CC1)c1[nH]c3ccccc3c1CCN2C | 659
COc1ccc(-c2ccc3nc(N4CCC(C(=O)N(C)C)CC4)sc3n2)cc1 | 828
COc1ccc(CCNC(=O)c2cc(C3CC3)[nH]n2)cc1OC | 690
CS(=O)(=O)N1CCC(C(=O)NC2CCCC(OC(=O)Nc3ccc(F)cc3)C2)CC1 (centres undefined) | 704
COc1ccc(C2CCCN2C(=O)c2cccs2)cc1 (centres undefined) | 888
O=C(Cn1nc2n(c1=O)CCCC2)N1CCN(c2ccccc2F)CC1 | 679
O=C(CN1C(=O)C(C(=O)N2CCCC2)Sc2ccccc21)N1CCN(c2cccc(Cl)c2)CC1 (centres undefined) | 923
COc1ccc(S(=O)(=O)N2CCc3nc[nH]c3C2)cc1 | 586
Cc1c(C(=O)NCCCN2CCCCC2)oc2ccc3c(c12)C(O)CC(C)(C)O3 (centres undefined) | 631
CC1CCCN(c2ncc(C(=O)NCc3ccccc3)c(N)n2)C1 (centres undefined) | 597

Continued, values first:

RP-LC retention time [s] | SMILES
623 | CC(=O)OCCNc1nc(-c2ccccc2)nc2ccccc12
643 | CCc1nc(N)n(CC(=O)Nc2cc(C)ccc2C)c(=O)c1C
728 | COc1cccc(C(=O)CC2(O)C(=O)Nc3c(C)cccc32)c1 (centres undefined)
627 | Cc1ccc(NC(=O)CCC(=O)O)c(C)c1
698 | CCNC(=O)C1CCCN(c2nc3ncn(CC(=O)Nc4ccc(F)c(Cl)c4)c(=O)c3s2)C1 (centres undefined)
1050 | O=C(Nc1ccc(F)c(F)c1)C1CCCN(c2nc3ccsc3c(=O)n2Cc2ccc(F)cc2)C1 (centres undefined)
641 | O=C(c1ccc(Cl)c(N2C(=O)CCS2(=O)=O)c1)N1CCN(c2ncccn2)CC1
941 | CCn1c(=O)sc2cc(S(=O)(=O)N3CCC(C(=O)Nc4cccc(F)c4)CC3)ccc21
814 | Cc1ccc(CNC(=O)Cn2c(=O)c(CCC(=O)NCC(C)C)nc3ccccc32)cc1
857 | Cc1ccccc1NC(=O)Cn1c(C(F)(F)F)nc2cc3c(cc21)OCCO3
981 | Cc1cccc(NC(=O)N2CCCC2c2nc(-c3ccc(F)cc3F)no2)c1C (centres undefined)
939 | Cc1occc1-c1nnc2sc(COc3ccc(F)cc3)nn12
790 | Cc1noc2nc(C)n(CC(=O)Nc3ccc(F)c(F)c3)c(=O)c12
606 | Cc1cc(C)cc(NC(=O)Cn2ncc3c(N4CCN(c5ccccn5)CC4)ncnc32)c1
946 | CCc1ccc(NC(=O)Cc2nc(C)c(C(=O)NCc3ccc(F)cc3)s2)cc1
925 | CN(C)S(=O)(=O)c1ccc(C(=O)Nc2sc(-c3ccccc3)cc2C(N)=O)cc1
870 | O=C(COc1ccc(Cl)cc1)NCc1ccc2c(c1)OCCCO2
711 | COc1cc2c(=O)c(C(=O)c3ccncc3)cn(CC(=O)Nc3ccc(F)cc3F)c2cc1Cl
752 | CSc1cccc(NC(=O)C2CCN(c3cnc4nccnc4c3)CC2)c1
1130 | Cc1cc(S(=O)(=O)N2CCc3nc(-c4ccc(F)cc4)ncc3C2)ccc1F
819 | COc1ccc(C(=O)N2CCC3(CC2)N=C(c2ccc(Cl)cc2)NO3)cc1F
638 | COC(=O)c1ccc(NC(=O)COc2cc(C)nc(N3CCCC3)n2)cc1
712 | CCn1cnc(S(=O)(=O)N2CCCC(C(=O)NCc3ccc(F)cc3)C2)c1 (centres undefined)
673 | COc1ccccc1-c1nc2cnccn2c1NCCC(=O)NC1CCCCC1

RP-LC retention time [s] | SMILES
840 | CN1c2cc(C(=O)N3CCN(c4ccc(F)cc4)CC3)ccc2C(=O)N2CCCCC21 (centres undefined)
961 | Cc1cc(C)n(-c2nc(CC(=O)Nc3ccccc3F)cs2)n1
648 | COc1ccc(C)cc1NC(=O)N1CCN(c2cnn3c(C)nnc3c2)CC1
584 | O=C(Nc1ccc(Cl)cc1F)N1CCc2nc[nH]c2C1
861 | CCN1c2ccc(F)cc2C(=O)NC12CCN(C(=O)c1ccc(C)cc1C)CC2
750 | O=C(NCc1csc(C2CCCN(C(=O)c3cc(F)ccc3Cl)C2)n1)C1CC1 (centres undefined)
707 | COc1ccc(N2CC(NC(=O)C(=O)c3c(C)[nH]c4ccccc34)CC2=O)cc1 (centres undefined)
828 | Cc1ccc(Cl)cc1N1CCN(c2cc(C(=O)O)c3cc(NC(=O)CC(C)C)ccc3n2)CC1
632 | COc1ccc(-c2nc(C)cc(C)c2CNC(=O)c2ccc3c(c2)OCO3)cc1
618 | O=C(CN1CCN(Cc2ccc(F)cc2)C1=O)NC1CCN(Cc2ccccc2)CC1
630 | COc1ccc(-c2cn3c(CC(=O)Nc4ccc(S(N)(=O)=O)cc4)csc3n2)cc1OC
990 | COc1cccc2nc(NC(=O)c3ccc(Br)s3)sc12
1030 | Cc1ccc(NC(=O)N2CCCC2c2nc(-c3cccc(F)c3)no2)c(C)c1 (centres undefined)
646 | COc1ccc(NC(=O)CCC2CCN(c3cc(NC4CC4)ncn3)CC2)cc1OC
772 | CC(C)C(=O)Nc1cc2c(cc1S(=O)(=O)c1ccccc1)n(C)c(=O)n2C
1090 | COc1cc2c(cc1Cc1cccc(Cl)c1F)c(=O)c(C(=O)O)cn2[C@H](CO)C(C)C
945 | CCc1cccc(N2C(=O)CN(S(=O)(=O)CC)CC2(C)C(=O)NCc2ccc(F)cc2)c1 (centres undefined)
749 | O=C(NCc1ccc(F)cc1)C1CCCN(c2nnc3ccc(Cl)cn23)C1 (centres undefined)
988 | CC(=O)c1cccc(NC(=O)Cn2cccc2-c2nc(-c3ccccc3)no2)c1
782 | COc1ccc(OCC(=O)Nc2ccc3c(c2)N(C(C)=O)CCC3)cc1
1190 | COc1ccc(-c2noc(-c3nnn4c3COC(c3ccc(Cl)cc3)C4)n2)cc1 (centres undefined)
703 | O=C(Nc1cccc(Br)c1)N1CCN(Cc2nc3cccnc3n2-c2ccccc2)CC1
868 | O=C(Nc1cccc(-c2nccnc2N2CCOCC2)c1)Nc1ccc(F)c(Cl)c1
1160 | O=C(c1cccs1)N(Cc1ccco1)c1nc2c(F)cc(F)cc2s1

— the METLIN SMRT retention time set (Domingo-Almenara et al. 2019)
